Data reported in ChEMBL document CHEMBL3124868, “Design, synthesis, pharmacological evaluation, QSAR analysis, molecular modeling and ADMET of novel donepezil-indolyl hybrids as multipotent cholinesterase/monoamine oxidase inhibitors for the potential treatment of Alzheimer's disease” (Eur J Med Chem, 2014).
pIC50: −log10 of the molar value.

How the values were obtained:
[1] = target: T1, Amine oxidase [flavin-containing] A (Homo sapiens, UniProt P21397); experiment: Inhibition of human recombinant MAO-A using tyramine as substrate preincubated for 30 mins followed by substrate addition measured for 1 hr by fluorometric assay; details: for pIC50: read-out: IC50; for IC50: read-out: pIC50 (converted)
T1 sequence (P21397 whole entry): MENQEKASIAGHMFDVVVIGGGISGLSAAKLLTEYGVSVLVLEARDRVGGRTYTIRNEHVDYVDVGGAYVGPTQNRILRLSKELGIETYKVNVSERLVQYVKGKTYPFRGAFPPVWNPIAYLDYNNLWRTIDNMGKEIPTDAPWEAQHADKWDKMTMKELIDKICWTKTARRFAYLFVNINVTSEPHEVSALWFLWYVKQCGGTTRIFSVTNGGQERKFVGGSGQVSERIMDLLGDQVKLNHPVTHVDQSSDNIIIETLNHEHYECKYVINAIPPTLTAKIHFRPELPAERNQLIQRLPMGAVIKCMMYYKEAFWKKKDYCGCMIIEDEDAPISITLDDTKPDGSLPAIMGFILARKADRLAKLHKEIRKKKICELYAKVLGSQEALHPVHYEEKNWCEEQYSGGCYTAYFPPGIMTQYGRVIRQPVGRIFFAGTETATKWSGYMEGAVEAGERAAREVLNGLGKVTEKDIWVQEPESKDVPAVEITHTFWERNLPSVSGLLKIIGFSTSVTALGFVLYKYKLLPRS

Cholinesterase = Cholinesterase (Equus caballus, UniProt P81908); experiment: Inhibition of equine serum BuChE using butyrylthiocholine iodide as substrate preincubated for 20 mins followed by substrate addition measured after 25 mins by Ellman's method
[2] = target: T2, Amine oxidase [flavin-containing] B (Homo sapiens, UniProt P27338); experiment: Inhibition of human recombinant MAO-B using tyramine as substrate preincubated for 30 mins followed by substrate addition measured for 1 hr by fluorometric assay
T2 sequence (P27338 whole entry): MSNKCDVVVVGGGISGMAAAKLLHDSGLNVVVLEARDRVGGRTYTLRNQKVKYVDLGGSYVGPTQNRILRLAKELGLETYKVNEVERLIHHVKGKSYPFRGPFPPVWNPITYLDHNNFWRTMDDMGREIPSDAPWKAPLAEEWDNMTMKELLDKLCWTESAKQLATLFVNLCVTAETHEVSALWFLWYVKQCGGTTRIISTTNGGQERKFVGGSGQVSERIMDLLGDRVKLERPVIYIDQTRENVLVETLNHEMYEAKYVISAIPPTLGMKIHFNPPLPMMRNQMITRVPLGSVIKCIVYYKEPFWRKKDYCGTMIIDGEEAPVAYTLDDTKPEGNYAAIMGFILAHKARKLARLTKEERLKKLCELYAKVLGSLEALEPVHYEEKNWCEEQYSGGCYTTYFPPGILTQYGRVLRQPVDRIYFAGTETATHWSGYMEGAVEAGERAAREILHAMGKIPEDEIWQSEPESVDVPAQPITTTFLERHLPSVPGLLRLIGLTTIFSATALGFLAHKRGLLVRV

[3] = Selectivity ratio of IC50 for equine serum BuChE to IC50 for electric eel AChE
Homo sapiens = species on record: Homo sapiens; experiment: Selectivity ratio of IC50 for human recombinant MAO-B to IC50 for human recombinant MAO-A
Acetylcholinesterase = Acetylcholinesterase (Electrophorus electricus, UniProt O42275); experiment: Inhibition of electric eel AChE using acetylthiocholine iodide as substrate preincubated for 20 mins followed by substrate addition measured after 5 mins by Ellman's method
Acetylcholinesterase, sequence (O42275 whole entry): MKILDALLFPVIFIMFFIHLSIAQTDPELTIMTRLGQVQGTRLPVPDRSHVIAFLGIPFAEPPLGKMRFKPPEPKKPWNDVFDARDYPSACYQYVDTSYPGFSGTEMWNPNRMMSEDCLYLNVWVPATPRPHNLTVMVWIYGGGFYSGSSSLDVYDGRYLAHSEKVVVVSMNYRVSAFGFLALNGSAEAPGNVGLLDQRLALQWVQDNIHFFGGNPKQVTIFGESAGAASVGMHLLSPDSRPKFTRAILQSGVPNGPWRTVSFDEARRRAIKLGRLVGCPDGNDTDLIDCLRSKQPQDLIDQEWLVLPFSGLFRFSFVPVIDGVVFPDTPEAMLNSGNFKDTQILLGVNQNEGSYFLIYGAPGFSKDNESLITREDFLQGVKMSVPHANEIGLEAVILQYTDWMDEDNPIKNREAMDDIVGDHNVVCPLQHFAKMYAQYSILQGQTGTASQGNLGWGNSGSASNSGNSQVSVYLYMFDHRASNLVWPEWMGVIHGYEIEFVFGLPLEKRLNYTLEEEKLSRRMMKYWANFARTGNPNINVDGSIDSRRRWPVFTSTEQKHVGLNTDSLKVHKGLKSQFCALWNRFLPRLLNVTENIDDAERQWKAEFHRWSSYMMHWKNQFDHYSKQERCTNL

Cholinesterase, sequence (P81908 whole entry): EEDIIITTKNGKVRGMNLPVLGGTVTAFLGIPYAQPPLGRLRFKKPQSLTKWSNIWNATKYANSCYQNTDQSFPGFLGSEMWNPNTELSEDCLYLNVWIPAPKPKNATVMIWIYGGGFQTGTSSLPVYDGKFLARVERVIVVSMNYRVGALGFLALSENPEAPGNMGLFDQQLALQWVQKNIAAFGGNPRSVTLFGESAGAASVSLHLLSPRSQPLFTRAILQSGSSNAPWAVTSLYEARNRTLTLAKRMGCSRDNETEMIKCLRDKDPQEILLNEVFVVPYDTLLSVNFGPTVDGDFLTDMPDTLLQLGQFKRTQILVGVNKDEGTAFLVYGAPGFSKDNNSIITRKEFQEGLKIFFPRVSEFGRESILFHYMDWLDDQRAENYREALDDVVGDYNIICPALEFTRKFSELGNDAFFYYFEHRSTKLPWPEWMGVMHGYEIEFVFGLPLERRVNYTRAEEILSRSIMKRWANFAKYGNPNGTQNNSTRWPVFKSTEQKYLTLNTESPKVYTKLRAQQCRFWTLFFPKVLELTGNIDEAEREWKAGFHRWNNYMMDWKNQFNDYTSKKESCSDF

| SMILES | pIC50 [1] | pIC50 (Cholinesterase) | pIC50 [2] | Ratio IC50 [3] | Ratio IC50 (Homo sapiens) | pIC50 (Acetylcholinesterase) | IC50 [1] [µM] |
| --- | --- | --- | --- | --- | --- | --- | --- |
| Cn1c(C(=O)N2CCOCC2)cc2cc(OCCCC3CCN(Cc4ccccc4)CC3)ccc21 | < 4.00 | < 4.00 | < 4.00 | > 370 | > 1 | 6.57 | – |
| CCOC(=O)c1cc2cc(OCCCC3CCN(Cc4ccccc4)CC3)ccc2n1C | 5.82 | < 4.00 | < 4.00 | > 370 | > 65 | 6.57 | – |
| Cn1c(C(=O)NCc2ccccc2)cc2cc(OCCCC3CCN(Cc4ccccc4)CC3)ccc21 | < 4.00 | < 4.00 | < 4.00 | > 1 | > 1 | < 4.00 | – |
| Cn1c(CN2CCOCC2)cc2cc(OCCCC3CCN(Cc4ccccc4)CC3)ccc21 | 5.36 | 6.10 | < 4.00 | 7.9 | > 22.7 | 7.00 | – |
| C#CCN(C)Cc1cc2cc(OCCCC3CCN(Cc4ccccc4)CC3)ccc2n1C | 8.38 | – | – | – | – | – | – |
| COc1ccc2c(c1)cc(C(=O)NCc1ccccc1)n2C | < 4.00 | < 4.00 | < 4.00 | > 1 | > 1 | < 4.00 | – |
| C#CCNC(=O)c1cc2cc(OCCCC3CCN(Cc4ccccc4)CC3)ccc2n1C | < 4.00 | < 4.00 | < 4.00 | > 770 | > 1 | 6.89 | – |
| COc1ccc2c(c1)cc(CNCc1ccccc1)n2C | < 4.00 | 4.64 | < 4.00 | 1.5 | > 1 | 4.82 | 100 |
| C=CCNCc1cc2cc(OCCCC3CCN(Cc4ccccc4)CC3)ccc2n1C | 6.01 | 6.34 | 4.82 | 3.3 | 15.6 | 6.85 | – |
| Cn1c(C(=O)Nc2ccccc2)cc2cc(OCCCC3CCN(Cc4ccccc4)CC3)ccc21 | < 4.00 | < 4.00 | < 4.00 | > 1 | > 1 | < 4.00 | – |
| Cn1c(C(=O)O)cc2cc(OCCCC3CCN(Cc4ccccc4)CC3)ccc21 | < 4.00 | < 4.00 | < 4.00 | > 250 | > 1 | 6.40 | – |
| Cn1c(CNc2ccccc2)cc2cc(OCCCC3CCN(Cc4ccccc4)CC3)ccc21 | < 4.00 | 6.07 | < 4.00 | 10 | > 1 | 7.08 | 100 |
| C#CCNCc1cc2cc(OCCCC3CCN(Cc4ccccc4)CC3)ccc2n1C | 8.26 | 6.08 | 6.82 | 4.4 | 27.3 | 6.72 | – |
| Cn1c(CNCc2ccccc2)cc2cc(OCCCC3CCN(Cc4ccccc4)CC3)ccc21 | < 4.00 | 6.54 | < 4.00 | 2 | > 1 | 6.85 | 100 |
| Cn1c(CO)cc2cc(OCCCC3CCN(Cc4ccccc4)CC3)ccc21 | 5.37 | < 4.00 | < 4.00 | > 416 | > 23 | 6.62 | – |
